Results: US20090275655A1, “Pharmaceutical Gallium Compositions and Methods” (priority 2008, published 2009)

Assay: intravenous infusion in a cystic fibrosis patient, concentration of ionic gallium in sputum, plasma and whole blood
Assay type: in vivo, human patient
Procedure: During one such treatment, this patient received an infusion of gallium citrate-nitrate over 5 days at a dose of 240 mg/day, or approximately 150 mg/m^2/day, and the concentration of ionic gallium in a deep-cough sputum specimen was then measured. The gallium concentration in the sputum was 3.2 μg/ml, or approximately 46 μmol/L, which is a concentration that is adequate to kill resistant Pseudomonas organisms in vivo. See Kaneko et al., J. Clin. Invest. 117:877-888 (2007).
Beginning about 1 month later, the same patient from Example 4 was given additional infusions of gallium citrate-nitrate at doses of 200 mg/m^2/day over 5 days, and the concentration of ionic gallium in deep-cough sputum specimens was again determined. […] The concentrations at days 5-11 are high, and even after cessation of treatment they remain levels that are believed to be therapeutic in vivo.

[1] = Treatment Number Two, 200 mg/m^2/d, end of infusion, Day 5 (verification repeat)

gallium citrate-nitrate
gallium concentration, Sputum (Treatment Number One, 150 mg/m^2/d, end of infusion, Day 5): 2.22 µg/mL | gallium concentration, Sputum (Treatment Number Two, 200 mg/m^2/d, end of infusion, Day 5): 2.13 µg/mL | gallium concentration, Whole Blood (Treatment Number Two, 200 mg/m^2/d, end of infusion, Day 5 20:00 h): 1.64 µg/mL | gallium concentration, Plasma [1]: 1.35 µg/mL | gallium concentration, Sputum [1]: 2.65 µg/mL | gallium concentration, Sputum (Treatment Number Two, Baseline (Time 0), one month after Treatment One): 0.32 µg/mL | gallium concentration, Sputum (Treatment Number Two, Post-Infusion, Day 6): 1.83 µg/mL | gallium concentration, Sputum (Treatment Number Two, Post-Infusion, Day 7): 2.04 µg/mL | gallium concentration, Sputum (Treatment Number Two, Post-Infusion, Day 9): 4.35 µg/mL | gallium concentration, Sputum (Treatment Number Two, Post-Infusion, Day 11): 4.78 µg/mL | sputum levels exceed plasma concentrations (patient, following systemic (IV) administration): roughly 2 fold
